This test in a line: Inhibition of yeast alpha-D-glucosidase.

For orientation: IC50 means the concentration needed to halve the response being measured. As a reminder, the Ki is a dissociation constant, usually derived from enzyme kinetics or from competition with a known ligand. High values mean weaker binding, low ones tighter binding.

In turn, `O=C1CNC[C@@H]1O` came in with an IC50 of 150 µM.

As to `O[C@H]1[C@H](O)CN[C@H]1O`, affinity was put at a Ki of 2 µM. Still for that read-out and setting: the value for `OC[C@H]1NC(O)[C@H](O)[C@@H](O)[C@@H]1O` (stereo partly drawn) [NOJIRIMYCIN] was 6.3 µM.

Source of the values: BindingDB's records for doi:10.1016/j.bmc.2007.03.073 (University of Upper Alsace, 2007).
